For data set [1] the following is noted: conclusion from calculated Tt and seeding experiment.
Protocol: (§1) In order to confirm this finding experimentally, a seeding experiment was carried out, where mixtures of the two forms were slurried in an organic solvent for 4 hours at various temperatures.
The conditions of data set [2]: triplicate; for bulk density: 50.0 g sample; for tapped density: 2500 taps at 100 taps/min. As to the method:
Density determinations were performed as described in Ph. Eur. 2.9.34. The method was modified as the sample amount placed in the 250 ml volumetric glass cylinder was 50.0 g and 2500 taps were run at 100 taps/min. The measurements were done in triplicate.

For data set [3] the following is noted: mixtures of the two forms slurried in organic solvent for 4 hours, XRPD.
Protocol: as §1
For data set [4] the following is noted: 25° C. As to the method:
Dynamic vapour sorption (DVS) measurements were conducted using a Q5000 SA from TA instruments.
Experiments were conducted in two sorption/desorption cycles between 0% RH and 95% RH. Prior to the first sorption cycle the sample was equilibrated at 20% RH and the initial weight recorded. Samples were analyzed in an aluminium pan. Humidity was brought down to 0% RH and the sample dried until the weight had stabilized within a given limit. The temperature was held constant at 25° C. Maximum step time was 720 min. Gas flow was 200 cm3/min.

For data set [5] the following is noted: for Particle size D10 / Particle size D50 / Particle size D90: image analysis; for Aspect ratio AR10 / Aspect ratio AR50 / Aspect ratio AR90: longest divided by shortest particle dimension. As to the method: Microscopic analysis was carried out using a Zeiss Axiolab microscope (Carl Zeiss, Göttingen, Germany). Photomicrographs were captured using a DeltaPix digital camera and Deltapix software version 1.6 (Maaloev, Denmark). […] The particle size was determinated using Motic Image Plus 2.0 software (Motic Group Inc, China), calibrated to pictures of reference scales taken with the used objectives.

Molecules are shown by their SMILES. Read-outs that look alike come from different tables or passages of the source.

As for `CCCN1CCC(c2cccc(S(C)(=O)=O)c2)CC1.Cl` [Form II, 4-(3-methanesulfonyl-phenyl)-1-propyl-piperidine hydrochloride salt], the “temperature at which the form is the thermodynamically most stable form” value in data set [1] was “above 127 °C”. Further, in data set [2], the bulk density was found to be 0.382 g/mL and the tapped density turned out to be 0.486 g/mL. Further, in data set [3], the “temperature at which the polymorphic outcome of slurrying was this form” value is “above 130 °C”. Further, in data set [4] (below 80% RH), the “hygroscopicity (DVS)” value was “non-hygroscopic”. Also, in data set [4] (in excess of 80% RH), the “hygroscopicity (DVS)” value is “deliquescent”. Further, in data set [5], the “Particle size D10” value amounted to 49 μm, the “Particle size D50” value is 170 μm, the “Particle size D90” value stood at 363 μm and the “Aspect ratio AR10” value turned out to be 1.1. Also, in data set [5], the “Aspect ratio AR50” value came to 1.6 and the “Aspect ratio AR90” value is 2.9.

For the compound `CCCN1CCC(c2cccc(S(C)(=O)=O)c2)CC1` [Form I, 4-(3-methanesulfonyl-phenyl)-1-propyl-piperidine], the “temperature at which the form is the thermodynamically most stable form” value in data set [1] is “above 127 °C”. In addition, in data set [2], the bulk density was 0.212 g/mL and the tapped density worked out at 0.264 g/mL. Further, in data set [3], the “temperature at which the polymorphic outcome of slurrying was this form” value is “below 125 °C”. The “hygroscopicity (DVS)” value in data set [4] (below 80% RH) is “non-hygroscopic”. For the same compound, the “hygroscopicity (DVS)” value in data set [4] (in excess of 80% RH) is given as “deliquescent”. Moreover, in data set [5], the “Particle size D10” value is listed as 9 μm, the “Particle size D50” value is given as 21 μm, the “Particle size D90” value was found to be 42 μm and the “Aspect ratio AR10” value stood at 1.6. In addition, in data set [5], the “Aspect ratio AR50” value stood at 3.1 and the “Aspect ratio AR90” value was found to be 5.8.

These data come from patent publication US9006445B2, “Polymorphic form of pridopidine hydrochloride” (Ivax International GmbH, priority 2011, dated 2015).
